According to the NIST ThermoML archive (doi:10.1016/j.jct.2007.07.005):

Experiment: xn = mol fraction of the nth substance listed
Settings: Fluid (supercritical or subcritical phases), vibrating tube

CCCCCO [pentan-1-ol] + O=C=O
Settings	mass density [kg/m3]
342.87 K, 20033 kPa, x2 = 0.4651	814.31
342.87 K, 21025 kPa, x2 = 0.4651	815.82
342.87 K, 21037 kPa, x2 = 0.3624	811.12
342.87 K, 21039 kPa, x2 = 0.7274	812.39
342.87 K, 21983 kPa, x2 = 0.4651	817.26
342.87 K, 21990 kPa, x2 = 0.3624	812.11
342.87 K, 22001 kPa, x2 = 0.7274	815.49
342.87 K, 23014 kPa, x2 = 0.4651	818.77
342.87 K, 23015 kPa, x2 = 0.7274	818.69
342.87 K, 23033 kPa, x2 = 0.3624	813.18
342.87 K, 24005 kPa, x2 = 0.3624	814.16
342.87 K, 24023 kPa, x2 = 0.4651	820.23
342.87 K, 24099 kPa, x2 = 0.7274	821.95
342.87 K, 25028 kPa, x2 = 0.3624	815.18
342.88 K, 3034 kPa, x2 = 0.0816	781.33
342.88 K, 4000 kPa, x2 = 0.0816	782.24
342.88 K, 4969 kPa, x2 = 0.0816	783.19
342.88 K, 5981 kPa, x2 = 0.0816	784.14
342.88 K, 7023 kPa, x2 = 0.0816	785.12
342.88 K, 8012 kPa, x2 = 0.0816	786.04
342.88 K, 9030 kPa, x2 = 0.0816	786.97
342.88 K, 10026 kPa, x2 = 0.0816	787.86
342.88 K, 10992 kPa, x2 = 0.0816	788.72
342.88 K, 11981 kPa, x2 = 0.0816	789.59
342.88 K, 13062 kPa, x2 = 0.0816	790.54
342.88 K, 14001 kPa, x2 = 0.9216	654.38
342.88 K, 14013 kPa, x2 = 0.0816	791.33
342.88 K, 15014 kPa, x2 = 0.9216	679.88
342.88 K, 15025 kPa, x2 = 0.0816	792.19
342.88 K, 15995 kPa, x2 = 0.0816	793.03
342.88 K, 16009 kPa, x2 = 0.9216	699.02
342.88 K, 16999 kPa, x2 = 0.0816	793.86
342.88 K, 17032 kPa, x2 = 0.9216	715.18
342.88 K, 18002 kPa, x2 = 0.9216	728.34
342.88 K, 18009 kPa, x2 = 0.0816	794.69
342.88 K, 19029 kPa, x2 = 0.0816	795.51
342.88 K, 19057 kPa, x2 = 0.9216	740.82
342.88 K, 19987 kPa, x2 = 0.0816	796.28
342.88 K, 19996 kPa, x2 = 0.9216	750.81
342.88 K, 21039 kPa, x2 = 0.0816	797.11
342.88 K, 21039 kPa, x2 = 0.9216	760.88
342.88 K, 21996 kPa, x2 = 0.0816	797.87
342.88 K, 22026 kPa, x2 = 0.9216	769.6
342.88 K, 22991 kPa, x2 = 0.0816	798.65
342.88 K, 24056 kPa, x2 = 0.0816	799.48
342.88 K, 25041 kPa, x2 = 0.0816	800.25
342.89 K, 14024 kPa, x2 = 0.8573	720.89
342.89 K, 15020 kPa, x2 = 0.8573	735.53
342.89 K, 16007 kPa, x2 = 0.8573	747
342.89 K, 17031 kPa, x2 = 0.8573	757.08
342.89 K, 18025 kPa, x2 = 0.8573	765.71
342.89 K, 19016 kPa, x2 = 0.8573	773.47
342.89 K, 20036 kPa, x2 = 0.8573	780.77
342.89 K, 21016 kPa, x2 = 0.8573	787.25
342.89 K, 21989 kPa, x2 = 0.8573	793.31
342.89 K, 23049 kPa, x2 = 0.8573	799.42
342.89 K, 24035 kPa, x2 = 0.8573	804.78
342.89 K, 24945 kPa, x2 = 0.8573	809.51
342.95 K, 13102 kPa, x2 = 0.6054	801.79
342.95 K, 14086 kPa, x2 = 0.6054	804.2
342.95 K, 15021 kPa, x2 = 0.6054	806.46
342.95 K, 16051 kPa, x2 = 0.6054	808.84
